For one assay, the system named is MDS mouse model. Nature of the assay: MDS mouse model, combination of KanAS, ATRA and 5-azacytidine, survival. It is filed as in vivo. Conditions: MDS mice, individual mouse; alive = still alive on 24 Mar. 2010. Here is the method:
The MDS mouse model described in Omidvar et al. (2007, Cancer Res. 67:11657-67) was used to study the effect of the combination of KanAS, ATRA and 5-azacytidine on MDS.
100 microliters of 1 mg/ml solution of 5-Azacytidine was injected IP to the mice on the day of diagnosis and then on Mondays, Wednesdays and Fridays until death of the mice.
ATRA was administered through a 10 mg 21 day release pellet
The vaccination protocol was as follows: 100 micrograms of DNA (VVACS02 or pVax14 or pVaxKanAS) were administered […] diagnosis (day 0), which corresponded to the day on which the peripheral blood platelet count fell below normal (<10^5/microliter). On day 20 and on day 40, 2×50 micrograms of DNA were injected again.
The mice were randomly divided into four groups after twelve 5-azacytidine injections: • 5-Azacytidine (n=5) • 5-azacytidine+ATRA (n=4) • 5-azacytidine+VVACS02 DNA (n=4) • 5-azacytidine+ATRA+VVACS02 DNA (n=4)

The next assay relates to APL cells. In words: APL mouse model survival, Kaplan-Meier, mice followed for two years. The class given is in vivo, FVB/N mice. The note with it: Kaplan-Meier survival curves. Here is the method: The effect of different DNA constructs on an APL mouse model was studied using the protocol disclosed in Padua et al. (2003, Nature Medicine 9:1413-1417). Briefly, 10^4 APL cells were injected to FVB/N mice. Then an ATRA pellet, which releases 5 mg/day of ATRA for 21 days, was introduced behind the neck of the mice with a trochar. DNA (2×50 micrograms of plasmid) was injected the day after introducing the ATRA pellet, and every 20 days for a total of three injections. The following DNA constructs were injected to the mice: • the pVaxKanAS construct, also referred to as pVax14; • the pCDNA3PML-RARαFrC construct (VVACS01); • the pVaxPML-RARαFrC construct; and • the pCDNA3PML-RARαASFrC construct (VVACS04).
A pellet purchased from the manufacturer of the ATRA pellet (Innovative Research, Sarasota, USA) was used as a placebo.
The mice were followed for two years and Kaplan-Meier curves were constructed.
The results are shown on FIG. 2 and in Table 1 herebelow. The log-rank (Mantel-Cox) and general Wilcoxon tests were applied to the Kaplan-Meier curves. Both statistical tests led to identical conclusions in terms of significance.

From US9029135B2 (priority 2009, dated 2015) come the findings set out here.

Where “and” joins values, the source holds several entries; their conditions need not be identical. Identical values can stand only once.

Regarding `Nc1ncn([C@@H]2O[C@H](CO)[C@@H](O)[C@H]2O)c(=O)n1` [5-azacytidine], in the assay with MDS mouse model, the “Days alive from treatment” value was 33 days and Alive on 24 Mar. 2010 (112 days) and 72 days and Alive on 24 Mar. 2010 (75 days) and 37 days.
On to `CC1=C(/C=C/C(C)=C/C=C/C(C)=C/C(=O)O)C(C)(C)CCC1` [ATRA, all-trans retinoic acid], for which, in the assay on APL cells (V.S. placebo), the “general Wilcoxon Chi-2 value” turned out to be 5.1827E+01, the “general Wilcoxon significance (p bound)” value was “p < 0.0001”, the “log-rank (Mantel-Cox) Chi-2 value” was found to be 6.0018E+01 and the “log-rank (Mantel-Cox) significance (p bound)” value was “p < 0.0001”. Further, in the assay with APL cells (V.S. placebo + DNA), the “general Wilcoxon Chi-2 value” came out at 1.6318E+01, the “general Wilcoxon significance (p bound)” value is “p < 0.0001”, the “log-rank (Mantel-Cox) Chi-2 value” was determined as 8.7059E+00 and the “log-rank (Mantel-Cox) significance (p bound)” value was “p < 0.005”.
